Assay results taken from patent publication US7045324B2, “Tocopherol associated protein and uses thereof” (Research Development Foundation, priority 2002, dated 2006).

Key:
[1] = test system: MDA-MB-435 human breast cancer cells; assay: Apoptosis (DAPI staining) of TAP siRNA transfected MDA-MB-435 cells treated with tocopherol-based compounds; type: cell-based; details: TAP siRNA for 6 days, then compound for 2 days (α-TEA 20 μg/ml, VES 20 μg/ml, δT3 5 μg/ml)
Procedure: MDA-MD-435 cells at 13.5×10^6/55 cm^2 cell culture dish (100 mm×20 mm; catalog # 430293, Corning Inc., Corning, N.Y.) were transiently transfected with in vitro transcribed TAP siRNA (Silencer siRNA Construction Kit, Ambion) using siPORT Lipid following company instructions (catalog # 4505, Ambion, Austin, Tex.). Cells were incubated overnight in culture media, then washed two times with non-supplemented regular MEM media. Next, the cells were incubated overnight in the presence of siRNA/siPORT Lipid [[…]/16 μl or 16 μl siPORT lipid only (as control)] in 5 ml of serum free media (OPTI-MEMI, catalog # 31985–070, Gibco). SiRNA/siPORT Lipid complex was generated by two steps: 1) 16 μl of siPORT lipid was incubated with 60 μl of OPTI-MEMI media for 30 minutes at room temperature; and 2) 60 μl of siPORT Lipid in OPTI-MEMI was then incubated for 20 minutes with 500 μl of diluted TAP siRNA [or 500 μl media as control (5 μl of 10 μl TAP siRNA in 500 μl of OPTI-MEMI media)]. The transfected cells were then split into 12 wells at 1.5×10^5 cells/well for apoptosis and 55 cm^2 dish at 3.5×10^6 cells/dish for Western immunoblot analyses.
The cells in 55 cm^2 dishes were incubated for 8 hours with culture media followed by treatment with 20 μg/ml of α-TEA in 2% serum treatment media for 15 hours. Cells were collected and fractionated, and the lysates were analyzed for TAP protein levels by Western immunoblotting (FIG. 13A). The cells plated in 12-well plates were incubated overnight in culture media followed by treatment with 20 μg/ml of α-TEA, 20 μg/ml of VES, and 5 μg/ml of RRR-δ-tocotrienol (dt3) and cultured for 2 days. Apoptosis was evaluated by DAPI staining (FIG. 13B).
For example, cells transiently transfected with TAP siRNA for 6 days and then treated with α-TEA, VES, or δT3 were inhibited from induction of apoptosis by approximately 60% in comparison to control cells cultured with the three compounds for two days.

[2] = test system: MDA-MB-435 cells; assay: Apoptosis (nuclear condensation and fragmentation) of MDA-MB-435 cells transfected with antisense oligomers to TAP; type: cell-based, human; details: antisense to N-terminal region of TAP (TAP-38 and TAP-46)
Procedure: Apoptosis was determined by examination of nuclear condensation and fragmentation.
Transient transfection of MDA-MB-435 cells with antisense oligomers to the N-terminal region of TAP (interferes with TAP-38 as well as TAP-46 transcription) blocked the ability of tocopherol compounds, vitamin E succinate and compound #1, to induce apoptosis, showing that TAP-38 and TAP-46 are involved in the ability of vitamin E compounds to inhibit tumor cell growth (FIG. 10).

[3] = test system: tumor cells, normal cells, cells of epithelial or immune origin; details: cited from earlier work
[4] = test system: MDA-MB-435 cells; assay: PARP cleavage and c-Jun phosphorylation in MDA-MB-435 cells transfected with antisense or sense oligomers to TAP; type: cell-based, human
Source text: Antisense oligomers to TAP (both TAP-38 and TAP-46), showing that the induction of apoptosis with vitamin E succinate or compound #1 [2,5,7,8-tetramethyl-(2R-(4R,8R,12-trimethyltridecycl) chroman-6-yloxy) acetic acid] to involve tocopherol associated protein.

[5] = test system: MDA-MB-435 human breast cancer cells; assay: Apoptosis of MDA-MB-435 cells transiently transfected with TAP-38 or TAP-46 cDNA and treated with compound; type: cell-based; details: 20 micrograms/ml compound
Source text: Transient transfection of MDA-MB-435 human breast cancer cells with either TAP-38 or TAP-46 enhanced the ability of tocopherol compound #1 [2,5,7,8-tetramethyl-(2R-(4R,8R,12-trimethyltridecycl) chroman-6-yloxy) acetic acid] to induce apoptosis (FIG. 9).

Row | Structure (SMILES) | inhibition of induction of apoptosis by TAP siRNA in comparison to control cells [1] | ability to induce apoptosis in cells transfected with antisense oligomers to TAP, vs sense oligomers [2] | cleavage of poly ADP-ribose polymerase (PARP) in compound-treated cells with antisense vs sense oligomers to TAP [4] | phosphorylation of c-Jun in compound-treated cells with antisense vs sense oligomers to TAP [4] | further results
1 | Cc1c(C)c2c(c(C)c1OCC(=O)O)CC[C@@](C)(CCC[C@H](C)CCC[C@H](C)CCCC(C)C)O2 [α-TEA] | approximately 60% | – | – | – | –
2 | Cc1c(C)c2c(c(C)c1OC(=O)CCC(=O)O)CC[C@@](C)(CCC[C@H](C)CCC[C@H](C)CCCC(C)C)O2 [VES, RRR-α-tocopheryl succinate] | approximately 60% | blocked | blocked the cleavage | inhibited the phosphorylation | apoptotic inducing effects on normal cells ([3]; normal cells): no apoptotic inducing effects on normal cells; apoptosis of tumor cells ([3]; tumor cells): induces tumor cells to undergo apoptosis
3 | Cc1c(C)c2c(c(C)c1O)CC[C@@](C)(CCC[C@H](C)CCC[C@H](C)CCCC(C)C)O2 [RRR-α-tocopherol] | – | – | – | – | antiproliferative and proapoptotic activity ([3]; cells of epithelial or immune origin): neither antiproliferative nor proapoptotic biological activity
4 | Cc1c(C)c2c(c(C)c1OCC(=O)O)CC[C@@](C)(CCC[C@H](C)CCC[C@H](C)CCCC(C)C)O2 [compound #1, 2,5,7,8-tetramethyl-(2R-(4R,8R,12-trimethyltridecycl)chroman-6-yloxy) acetic acid] | – | blocked | blocked the cleavage | inhibited the phosphorylation | ability to induce apoptosis in cells transfected with either TAP-38 or TAP-46, vs vector control [5]: enhanced
5 | CC(C)=CCC/C(C)=C/CC/C(C)=C/CC[C@]1(C)CCc2cc(O)cc(C)c2O1 [δT3, RRR-δ-tocotrienol] | approximately 60% | – | – | – | –
